From patent US10745399B2 (priority 2015, dated 2020)

molecular target: human recombinant ATM (Homo sapiens (Human), UniProt Q13315); assay: ATM kinase assay (IC50 ATM), TR-FRET; assay type: biochemical; conditions: 10 μM ATP, p53 substrate
Method: ATM Kinase Assay—Determination of ATM Inhibition (IC50 ATM):
The IC50 value was determined with the aid of a biochemical ATM kinase assay. The assay consists of two steps: the enzymatic reaction and the detection step. Firstly, ATM (ataxia telangiectasia mutated) protein and the test substance are incubated at different concentrations with addition of substrate protein p53 and ATP. ATM mediates the phosphorylation of p53 at several positions, including at amino acid S15. The amount of phosphorylated p53 is determined with the aid of specific antibodies and the TR-FRET technique. The enzymatic ATM assay is carried out as TR-FRET (HTRF™, Cisbio Bioassays) based 384-well assay. In the first step, purified human recombinant ATM (human ATM, full length, GenBank ID NM_000051, expressed in a mammal cell line) is incubated in assay buffer for 15 minutes with the ATM inhibitor in various concentrations and without test substance as negative or neutral control. The assay buffer comprises 25 mM HEPES pH 8.0, 10 mM Mg(CH3COO)2, 1 mM MnCl2, 0.1% BSA and 0.01% Brij® 35, 5 mM dithiothreitol (DTT). […] In the second step, purified human recombinant cmyc-labelled p53 (human p53, full length, GenBank ID BC003596, expressed in Sf21 insect cells) and ATP are added, and the reaction mixture is incubated at 22° C. for 30-35 minutes. The pharmacologically relevant assay volume is 5 μl. […] The enzymatic reaction is stopped by addition of EDTA. […] After incubation, usually for 2 hours (between 1.5 and 15 h), for signal development, the plates are analysed in a plate reader (EnVision, PerkinElmer) using TRF mode (and with laser excitation). […] The measurement data were processed by means of Genedata Screener software. IC50 determinations are carried out, in particular, by fitting a dose/action curve to the data points by means of nonlinear regression analysis.

Chain of human recombinant ATM (Q13315 whole entry): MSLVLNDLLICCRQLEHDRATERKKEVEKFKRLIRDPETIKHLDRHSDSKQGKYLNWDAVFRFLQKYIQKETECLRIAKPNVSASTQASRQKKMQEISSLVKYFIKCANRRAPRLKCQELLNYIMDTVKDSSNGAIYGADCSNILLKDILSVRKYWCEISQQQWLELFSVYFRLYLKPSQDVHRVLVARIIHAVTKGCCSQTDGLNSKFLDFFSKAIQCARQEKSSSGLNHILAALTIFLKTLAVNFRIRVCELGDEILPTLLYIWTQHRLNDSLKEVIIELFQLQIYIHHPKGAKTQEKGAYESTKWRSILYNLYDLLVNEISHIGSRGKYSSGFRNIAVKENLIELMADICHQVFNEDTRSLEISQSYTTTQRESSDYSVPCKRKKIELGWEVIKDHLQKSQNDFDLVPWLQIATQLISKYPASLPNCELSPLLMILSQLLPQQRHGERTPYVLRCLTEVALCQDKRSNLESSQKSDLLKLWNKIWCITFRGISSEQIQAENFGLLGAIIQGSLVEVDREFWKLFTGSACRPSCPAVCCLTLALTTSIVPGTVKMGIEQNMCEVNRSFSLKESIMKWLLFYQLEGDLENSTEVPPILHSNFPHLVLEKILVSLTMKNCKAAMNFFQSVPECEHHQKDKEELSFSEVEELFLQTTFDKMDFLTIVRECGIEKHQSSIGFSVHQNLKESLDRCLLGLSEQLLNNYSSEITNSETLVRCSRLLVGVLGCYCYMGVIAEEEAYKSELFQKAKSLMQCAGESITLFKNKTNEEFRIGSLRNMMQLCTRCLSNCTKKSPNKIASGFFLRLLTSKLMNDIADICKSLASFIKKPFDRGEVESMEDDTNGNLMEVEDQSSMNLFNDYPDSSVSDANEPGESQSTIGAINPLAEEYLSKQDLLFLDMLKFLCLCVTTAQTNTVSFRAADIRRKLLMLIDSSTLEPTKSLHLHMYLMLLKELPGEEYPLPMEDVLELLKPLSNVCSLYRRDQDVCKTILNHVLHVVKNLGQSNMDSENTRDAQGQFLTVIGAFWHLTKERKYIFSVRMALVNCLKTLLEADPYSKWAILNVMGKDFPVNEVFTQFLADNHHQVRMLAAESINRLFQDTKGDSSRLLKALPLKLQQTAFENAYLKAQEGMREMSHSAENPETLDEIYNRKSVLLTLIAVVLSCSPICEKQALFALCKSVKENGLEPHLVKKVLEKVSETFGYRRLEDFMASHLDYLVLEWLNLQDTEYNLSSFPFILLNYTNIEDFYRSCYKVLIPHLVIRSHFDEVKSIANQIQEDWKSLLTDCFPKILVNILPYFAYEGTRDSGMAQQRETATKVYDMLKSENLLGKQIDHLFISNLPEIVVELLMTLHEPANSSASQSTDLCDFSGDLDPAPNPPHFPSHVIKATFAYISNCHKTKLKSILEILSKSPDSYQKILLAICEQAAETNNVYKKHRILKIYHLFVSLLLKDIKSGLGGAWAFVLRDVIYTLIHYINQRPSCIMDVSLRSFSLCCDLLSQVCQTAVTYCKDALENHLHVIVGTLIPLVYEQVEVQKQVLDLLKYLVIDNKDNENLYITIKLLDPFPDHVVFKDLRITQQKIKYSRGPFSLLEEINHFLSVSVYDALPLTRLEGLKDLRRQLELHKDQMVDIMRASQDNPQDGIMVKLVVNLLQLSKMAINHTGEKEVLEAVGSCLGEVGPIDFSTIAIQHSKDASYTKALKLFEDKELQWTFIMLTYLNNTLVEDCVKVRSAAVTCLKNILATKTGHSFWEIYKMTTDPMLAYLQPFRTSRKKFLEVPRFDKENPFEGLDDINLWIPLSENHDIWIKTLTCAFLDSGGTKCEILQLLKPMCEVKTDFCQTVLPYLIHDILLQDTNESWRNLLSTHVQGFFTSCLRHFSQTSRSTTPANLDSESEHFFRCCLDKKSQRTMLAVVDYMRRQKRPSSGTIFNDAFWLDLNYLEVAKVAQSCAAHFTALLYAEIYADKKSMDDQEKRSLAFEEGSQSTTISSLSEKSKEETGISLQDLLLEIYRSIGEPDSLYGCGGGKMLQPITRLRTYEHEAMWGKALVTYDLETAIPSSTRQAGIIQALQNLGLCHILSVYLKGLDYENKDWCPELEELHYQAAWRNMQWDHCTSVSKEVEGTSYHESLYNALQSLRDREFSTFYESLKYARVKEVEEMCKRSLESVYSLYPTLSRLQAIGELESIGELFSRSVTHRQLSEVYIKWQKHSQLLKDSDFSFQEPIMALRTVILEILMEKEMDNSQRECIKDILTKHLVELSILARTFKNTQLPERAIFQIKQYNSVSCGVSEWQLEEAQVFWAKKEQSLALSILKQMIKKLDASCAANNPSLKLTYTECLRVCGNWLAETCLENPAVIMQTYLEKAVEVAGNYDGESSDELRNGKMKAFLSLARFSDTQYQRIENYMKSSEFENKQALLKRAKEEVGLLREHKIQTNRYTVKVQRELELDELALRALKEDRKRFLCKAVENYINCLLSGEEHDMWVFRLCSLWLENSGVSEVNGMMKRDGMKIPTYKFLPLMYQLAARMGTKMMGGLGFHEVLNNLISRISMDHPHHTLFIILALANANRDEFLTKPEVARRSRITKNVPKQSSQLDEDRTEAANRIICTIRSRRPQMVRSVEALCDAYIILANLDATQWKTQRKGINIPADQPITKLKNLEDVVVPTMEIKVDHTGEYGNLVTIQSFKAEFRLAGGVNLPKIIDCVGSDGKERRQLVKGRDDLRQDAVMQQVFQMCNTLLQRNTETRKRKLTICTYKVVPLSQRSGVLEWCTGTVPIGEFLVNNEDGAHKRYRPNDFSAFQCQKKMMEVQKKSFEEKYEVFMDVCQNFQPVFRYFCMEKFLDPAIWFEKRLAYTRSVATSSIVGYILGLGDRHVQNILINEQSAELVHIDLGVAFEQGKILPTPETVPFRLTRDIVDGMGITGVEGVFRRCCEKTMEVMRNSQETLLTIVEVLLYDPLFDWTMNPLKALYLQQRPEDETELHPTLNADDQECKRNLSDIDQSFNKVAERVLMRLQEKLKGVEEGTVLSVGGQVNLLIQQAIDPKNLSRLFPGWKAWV

Row | Structure (SMILES) | IC50 [nM]
1 | COc1cc2ncc3c(c2cc1-c1cnn(C)c1)n(-c1ncc(OCCO)cc1F)c(=O)n3C [compound 67, 1-[3-Fluoro-5-(2-hydroxy-ethoxy)-2-pyridyl]-7-methoxy-3-methyl-8-(1-methylpyrazol-4-yl)imidazo-[4,5-c]quinolin-2-one] | < 1
2 | COc1cc2ncc3c(c2cc1-c1cnn(C)n1)n(-c1c(C)cncc1F)c(=O)n3C [compound 103, 1-(3-Fluoro-5-methylpyridin-4-yl)-7-methoxy-3-methyl-8-(2-methyl-2H-1,2,3-triazol-4-yl)-1,3-dihydroimidazo-[4,5-c]quinolin-2-one] | < 50
3 | COc1cc2ncc3c(c2cc1-c1cnn(C)c1)n(-c1ncc(F)cc1F)c(=O)n3C [Compound Example 1, 1-(3,5-Difluoropyridin-2-yl)-7-methoxy-3-methyl-8-(1-methyl-1H-pyrazol-4-yl)-1,3-dihydroimidazo[4,5-c] quinolin-2-one] | < 1

molecular target: PI3K p110β/p85α (human) (Homo sapiens (Human), UniProt P42338); assay: PI3K p110β/p85α (human), non-radioactive assay (HTRF); assay type: biochemical; conditions: IC50 (ATM) at least 2000 times higher compared with IC50 (PI3Kbeta)
Method: PI3K p110β/p85a (Human), Non-Radioactive Assay
PI3K p110β/p85α (human) was incubated in an assay buffer comprising 10 μM phosphatidylinositol 4,5-bisphosphate and MgATP (concentration as necessary). The reaction was initiated by addition of MgATP solution. After an incubation time of 30 min at room temperature, the reaction was stopped by addition of a solution consisting of EDTA and biotinylated phosphatidylinositol 3,4,5-trisphosphate. Finally, the detection buffer, consisting of a europium-labelled anti-GST monoclonal antibody, a GST-labelled GRP1 PH domain and streptavidin allophycocyanin, was added. The plate was read out via homogeneous time-resolved fluorescence (HTRF) and the corresponding signals were evaluated via the formula HTRF=10000×(Em665 nm/Em620 nm).

Chain of PI3K p110β/p85α (human) (P42338 whole entry): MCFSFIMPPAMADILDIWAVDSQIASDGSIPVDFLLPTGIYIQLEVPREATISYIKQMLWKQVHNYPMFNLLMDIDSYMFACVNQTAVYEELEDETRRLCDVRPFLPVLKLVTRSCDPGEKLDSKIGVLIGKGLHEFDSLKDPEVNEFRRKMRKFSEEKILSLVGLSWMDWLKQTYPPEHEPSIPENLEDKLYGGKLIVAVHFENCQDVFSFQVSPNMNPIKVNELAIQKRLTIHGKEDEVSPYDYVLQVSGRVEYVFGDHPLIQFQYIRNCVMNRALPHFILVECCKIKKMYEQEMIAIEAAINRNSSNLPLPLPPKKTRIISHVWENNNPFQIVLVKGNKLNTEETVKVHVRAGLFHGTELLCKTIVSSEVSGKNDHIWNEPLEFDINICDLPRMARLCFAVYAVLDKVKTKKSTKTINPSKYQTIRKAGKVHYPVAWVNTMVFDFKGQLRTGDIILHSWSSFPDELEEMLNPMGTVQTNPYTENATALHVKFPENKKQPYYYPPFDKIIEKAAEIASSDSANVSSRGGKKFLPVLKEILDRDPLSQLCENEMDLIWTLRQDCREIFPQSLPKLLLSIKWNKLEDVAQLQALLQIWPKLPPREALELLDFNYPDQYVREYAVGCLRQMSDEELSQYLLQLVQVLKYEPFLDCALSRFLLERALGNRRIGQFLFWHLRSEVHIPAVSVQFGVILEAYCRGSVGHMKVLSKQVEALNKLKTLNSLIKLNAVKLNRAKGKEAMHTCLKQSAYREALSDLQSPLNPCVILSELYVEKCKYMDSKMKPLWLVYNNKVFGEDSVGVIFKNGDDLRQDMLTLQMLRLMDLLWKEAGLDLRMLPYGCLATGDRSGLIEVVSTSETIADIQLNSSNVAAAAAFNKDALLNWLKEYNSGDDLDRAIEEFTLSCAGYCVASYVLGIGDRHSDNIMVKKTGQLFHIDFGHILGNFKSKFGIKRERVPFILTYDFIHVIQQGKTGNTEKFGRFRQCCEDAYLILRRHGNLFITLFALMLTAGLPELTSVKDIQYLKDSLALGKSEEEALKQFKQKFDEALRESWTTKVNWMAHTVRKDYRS
Chain of PI3K p110β/p85α (human) (P27986 whole entry partner): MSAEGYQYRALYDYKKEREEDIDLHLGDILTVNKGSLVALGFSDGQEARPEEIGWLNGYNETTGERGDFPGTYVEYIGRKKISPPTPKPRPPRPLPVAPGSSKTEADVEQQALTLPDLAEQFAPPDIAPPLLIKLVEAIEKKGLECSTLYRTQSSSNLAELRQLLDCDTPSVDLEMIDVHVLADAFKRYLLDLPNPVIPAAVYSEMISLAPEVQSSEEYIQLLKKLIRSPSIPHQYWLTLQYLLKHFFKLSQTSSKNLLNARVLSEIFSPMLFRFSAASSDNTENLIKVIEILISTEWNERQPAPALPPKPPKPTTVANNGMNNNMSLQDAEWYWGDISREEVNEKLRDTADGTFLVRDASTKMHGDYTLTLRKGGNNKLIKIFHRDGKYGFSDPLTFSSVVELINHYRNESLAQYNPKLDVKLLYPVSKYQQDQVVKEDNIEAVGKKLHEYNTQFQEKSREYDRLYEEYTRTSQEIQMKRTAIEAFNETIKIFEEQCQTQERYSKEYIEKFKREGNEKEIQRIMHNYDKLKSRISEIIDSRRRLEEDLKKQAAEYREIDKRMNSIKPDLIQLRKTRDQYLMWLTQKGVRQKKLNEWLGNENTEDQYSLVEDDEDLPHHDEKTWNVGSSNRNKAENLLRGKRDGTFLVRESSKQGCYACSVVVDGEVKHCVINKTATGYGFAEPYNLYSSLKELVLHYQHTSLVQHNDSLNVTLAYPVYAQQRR

Row | Structure (SMILES) | ratio IC50 (ATM):IC50(PI3Kbeta), selectivity with respect to PI3Kbeta
4 | COc1ccc(-c2cc3c(cc2OC)ncc2c3n(-c3c(F)cncc3OC)c(=O)n2C)cn1 [compound 137, 1-(3-Fluoro-5-methoxy-pyridin-4-yl)-7-methoxy-8-(6-methoxypyridin-3-yl)-3-methyl-1,3-dihydroimidazo-[4,5-c]quinolin-2-one] | at least 2000 times

molecular target: mTOR (human) (Homo sapiens (Human), UniProt P42345); assay: mTOR (human) radiometric kinase assay; assay type: biochemical; conditions: IC50 (ATM) at least 2000 times higher compared with IC50 (mTOR)
Method: mTOR (human) was incubated with 50 mM HEPES pH 7.5, 1 mM EGTA, 0.01% Tween 20, 2 mg/ml of the substrate, 3 mM MnCl2 and [γ-^33P-ATP] (specific activity approximately 500 cpm/pmol, concentration as necessary). The reaction was initiated by addition of MgATP solution. After incubation at room temperature for 40 minutes, the reaction was stopped by addition of 3% phosphoric acid. 10 μl of the reaction solution were then transferred dropwise onto a P30 filtermat and washed three times for 5 min in 75 mM phosphoric acid and once in methanol, dried and evaluated by means of liquid scintillation counting.

Row | Structure (SMILES) | ratio IC50 (ATM):IC50(mTOR), selectivity with respect to mTOR
5 | CCc1cnccc1-n1c(=O)n(C)c2cnc3cc(OC)c(-c4cnn(CC)c4)cc3c21 [compound 157, 8-(1-Ethyl-1H-pyrazol-4-yl)-1-(3-ethylpyridin-4-yl)-7-methoxy-3-methyl-1,3-dihydroimidazo[4,5-c] quinolin-2-one] | at least 2000 times
6 | COc1cc2ncc3c(c2cc1-c1cnn(C)c1)n(-c1cc2[nH]ccc2cn1)c(=O)n3C [compound 120, 7-Methoxy-3-methyl-8-(1-methyl-1H-pyrazol-4-yl)-1-(1H-pyrrolo[3,2-c]pyridin-6-yl)-1,3-dihydroimidazo-[4,5-c]quinolin-2-one] | at least 2000 times
7 | COc1cc2ncc3c(c2cc1-c1cnn(C)c1)n(-c1cn(C)nc1F)c(=O)n3C [compound 141, 1-(3-Fluoro-1-methyl-1H-pyrazol-4-yl)-7-methoxy-3-methyl-8-(1-methyl-1H-pyrazol-4-yl)-1,3-dihydro-imidazo[4,5-c]quinolin-2-one] | at least 2000 times
8 | COc1ccc(-c2cc3c(cc2OC)ncc2c3n(-c3cn(C)nc3F)c(=O)n2C)cn1 [compound 159, 1-(3-Fluoro-1-methyl-1H-pyrazol-4-yl)-7-methoxy-8-(6-methoxypyridin-3-yl)-3-methyl-1,3-dihydroimidazo-[4,5-c]quinolin-2-one] | at least 2000 times
9 | CCc1cncc(F)c1-n1c(=O)n(C)c2cnc3cc(OC)c(-c4cn[nH]n4)cc3c21 [compound 125, 1-(3-Ethyl-5-fluoropyridin-4-yl)-7-methoxy-3-methyl-8-(2H-1,2,3-triazol-4-yl)-1,3-dihydroimidazo[4,5-c] quinolin-2-one] | at least 2000 times
10 | COc1cnc(-n2c(=O)n(C)c3cnc4cc(OC)c(-c5c[nH]nc5C)cc4c32)c(F)c1 [compound 122, 1-(3-Fluoro-5-methoxy-pyridin-2-yl)-7-methoxy-3-methyl-8-(3-methyl-1H-pyrazol-4-yl)-1,3-dihydro-imidazo[4,5-c]quinolin-2-one] | at least 2000 times
11 | COc1cc2ncc3c(c2cc1-c1cnn(C)c1)n(-c1ncc(OCS(C)(=O)=O)cc1F)c(=O)n3C [compound 201, 1-(3-Fluoro-5-methyl-sulfonylmethoxypyridin-2-yl)-7-methoxy-3-methyl-8-(1-methyl-1H-pyrazol-4-yl)-1,3-dihydroimidazo[4,5-c]-quinolin-2-one] | at least 2000 times
12 | CNC(=O)c1cnc(-n2c(=O)n(C)c3cnc4cc(OC)c(-c5cnn(C)c5)cc4c32)c(F)c1 [compound 138, 5-Fluoro-6-[7-methoxy-3-methyl-8-(1-methyl-1H-pyrazol-4-yl)-2-oxo-2,3-dihydroimidazo[4,5-c]-quinolin-1-yl]-N-methyl-nicotinamid] | at least 2000 times
13 | COc1cc2ncc3c(c2cc1-c1cn(C)nc1C)n(-c1c(F)cncc1OC(F)F)c(=O)n3C [compound 147, 1-(3-Difluoromethoxy-5-fluoropyridin-4-yl)-8-(1,3-dimethyl-1H-pyrazol-4-yl)-7-methoxy-3-methyl-1,3-dihydroimidazo[4,5-c]-quinolin-2-one] | at least 2000 times
14 | CCc1cncc(F)c1-n1c(=O)n(C)c2cnc3cc(OC)c(-c4cn(C)nn4)cc3c21 [compound 126, 1-(3-Ethyl-5-fluoropyridin-4-yl)-7-methoxy-3-methyl-8-(1-methyl-1H-1,2,3-triazol-4-yl)-1,3-dihydroimidazo-[4,5-c]quinolin-2-one] | at least 2000 times
15 | COc1cc2ncc3c(c2cc1-c1cc[nH]n1)n(-c1cn(C)nc1C)c(=O)n3C [compound 121, 1-(1,3-Dimethyl-1H-pyrazol-4-yl)-7-methoxy-3-methyl-8-(1H-pyrazol-3-yl)-1,3-dihydroimidazo[4,5-c]-quinolin-2-one] | at least 2000 times
16 | COc1cc2ncc3c(c2cc1-c1cnn(C)c1)n(-c1ncc(OC(F)F)cc1F)c(=O)n3C [compound 114, 1-(5-Difluoromethoxy-3-fluoropyridin-2-yl)-7-methoxy-3-methyl-8-(1-methyl-1H-pyrazol-4-yl)-1,3-dihydroimidazo[4,5-c]-quinolin-2-one] | at least 2000 times
17 | COc1cc2ncc3c(c2cc1-c1ccc2nc(C)[nH]c2c1)n(-c1c(F)cncc1OC)c(=O)n3C [compound 136, 1-(3-Fluoro-5-methoxy-pyridin-4-yl)-7-methoxy-3-methyl-8-(2-methyl-3H-benzoimidazol-5-yl)-1,3-dihydroimidazo[4,5-c]-quinolin-2-one] | at least 2000 times

tested on: CHK2 phosphorylation (phospho-Thr68) in HCT116 cells; assay: Cellular pCHK2 assay, bleomycin-induced phosphorylation of CHK2 (phospho-Thr68), immunofluorescence high content; assay type: cell-based; conditions: Homo sapiens, HCT-116; HCT116 cells, 10 μM bleomycin, 4 h; read-out: IC50 (pCHK2)
From the text: For the identification of substances which inhibit the phosphorylation of the protein kinase CHK2 at the amino acid threonine 68, an immunofluorescence-based “high content” analysis assay was used in HCT116 cells.
In vitro cell-based immunofluorescence assay for the identification of inhibitors of bleomycin-induced phosphorylation of CHK2 (phospho-Thr68) in the human colon carcinoma cell line HCT116:
HCT116 cells are sown out in a defined cell density in 384-well plates in culture medium (DMEM high glucose, 2 mM GlutaMax, 1 mM Na pyruvate, 10% FCS) and incubated overnight at 37° C. and 10% of CO2. On the following day, the test substances are added in a defined concentration range (1 nM to 30 μM) in combination with 10 μM bleomycin, where the concentration of the solvent DMSO is kept constant at 0.5%. After incubation for four hours at 37° C. and 10% of CO2, the cells are fixed (5 min, 4% formaldehyde in PBS), permeabilised (10 min, 0.2% Triton X-100 in PBS) and, after blocking of nonspecific binding sites (10% goat serum, 1% BSA in PBS), incubated overnight at 4° C. with a specific anti-pCHK2 antibody (cell signalling #2661). pCHK2 (Thr68) is determined using an Alexa488-labelled secondary anti-rabbit IgG antibody. Parallel staining of DNA with propidium iodide enables determination of the cell count. The pCHK2 signal is detected using a high-content imager (Molecular Devices IMX Ultra) and automatic image analysis using the MetaXpress software belonging to the instrument. The number of cell nuclei which have a pCHK2 signal above a defined background is determined.

Row | Structure (SMILES) | IC50 [nM]
18 | COc1cc2ncc3c(c2cc1-c1cnn(C)n1)n(-c1c(C)cncc1F)c(=O)n3C [compound 103, 1-(3-Fluoro-5-methylpyridin-4-yl)-7-methoxy-3-methyl-8-(2-methyl-2H-1,2,3-triazol-4-yl)-1,3-dihydroimidazo-[4,5-c]quinolin-2-one] | 200 to 1000
19 | COc1ccc(-c2cc3c(cc2OC)ncc2c3n(-c3c(F)cncc3OC)c(=O)n2C)cn1 [compound 137, 1-(3-Fluoro-5-methoxy-pyridin-4-yl)-7-methoxy-8-(6-methoxypyridin-3-yl)-3-methyl-1,3-dihydroimidazo-[4,5-c]quinolin-2-one] | 200 to 1000
